Test [1] deals with T1, GIPR (Homo sapiens, UniProt P48546, R192A).
T1 sequence (P48546 22-466 R192A): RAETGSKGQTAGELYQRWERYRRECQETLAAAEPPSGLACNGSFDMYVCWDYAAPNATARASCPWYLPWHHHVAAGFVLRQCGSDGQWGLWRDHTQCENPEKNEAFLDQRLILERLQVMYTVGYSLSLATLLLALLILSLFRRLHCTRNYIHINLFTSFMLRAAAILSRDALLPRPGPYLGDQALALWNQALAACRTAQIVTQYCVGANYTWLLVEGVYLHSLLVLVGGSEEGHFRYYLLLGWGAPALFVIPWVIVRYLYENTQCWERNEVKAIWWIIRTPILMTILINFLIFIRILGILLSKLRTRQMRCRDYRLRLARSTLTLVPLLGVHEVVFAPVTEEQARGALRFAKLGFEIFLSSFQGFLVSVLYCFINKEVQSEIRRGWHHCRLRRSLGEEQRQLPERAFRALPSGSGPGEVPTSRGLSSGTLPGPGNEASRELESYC
Description: Whole-cell binding assay, competition with 125I-GIP1-42. To be noted: GIPR R192A, CHO-K1. Set-up: acylated tirzepatide to the full-length or modified; Flag; expressed in transfected cells. Put shortly: (§1)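 Transiently transfected CHO-K1 cells expressing WT or mutant GIPR were washed in F-12 with 0.1% BSA or 0.1% casein and 33 mM HEPES, then incubated 2 h at 37 °C. After ice-cold PBS washes, cells were lysed and bound radioactivity counted (CPM).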

The target in test [2] is T2, GIPR (Homo sapiens, UniProt P48546, W209A).
T2 sequence (P48546 22-466 W209A): T1 sequence (P48546 22-466 R192A) with A171R, W188A
Described as above. Set-up: acylated tirzepatide to the full-length or modified; Flag; expressed in transfected cells. To be noted: GIPR W209A, CHO-K1. Put shortly: as §1

The target of test [3] is GLP-1R (Homo sapiens, UniProt P43220, W39A). Kind of test: cAMP accumulation assay, GLP-1R WT, mutant or modified constructs. Set-up: Flag; expressed in transfected cells; host or cells: HEK293T. To be noted: HEK-293T, GLP-1R W39A; HEK293T. The format is cell-based. Put shortly:
(§2)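 HEK293T cells transiently expressing wild-type, mutant or modified human GLP-1R (HA signal peptide constructs) were used. Cells were stimulated with peptide agonists for 40 min at room temperature in HBSS with 0.5 mM IBMX and 0.1% BSA or casein. cAMP was quantified by LANCE Ultra TR-FRET (620/650 nm).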
For orientation: cAMP levels reflect the balance of adenylyl cyclase and phosphodiesterase activity.

Test [4] has as its target GLP-1R (Homo sapiens, UniProt P43220, D198A/K202A/Y145A). Described as above. Format: cell-based. Details: Flag; expressed in transfected cells; host or cells: HEK293T. To be noted: GLP-1R Y145A/D198A/K202A, HEK293T. Put shortly:
as §2

[5] abbreviates: read-out: binding pIC50 (converted).

As a reminder, the Emax is the maximal effect, on the per cent scale that the assay sets.

Changes are numbered by the printed parent chain.

Chain of GLP-1R (Homo sapiens, UniProt P43220, D198A/K202A/Y145A) (P43220 24-463 Y145A/D198A/K202A): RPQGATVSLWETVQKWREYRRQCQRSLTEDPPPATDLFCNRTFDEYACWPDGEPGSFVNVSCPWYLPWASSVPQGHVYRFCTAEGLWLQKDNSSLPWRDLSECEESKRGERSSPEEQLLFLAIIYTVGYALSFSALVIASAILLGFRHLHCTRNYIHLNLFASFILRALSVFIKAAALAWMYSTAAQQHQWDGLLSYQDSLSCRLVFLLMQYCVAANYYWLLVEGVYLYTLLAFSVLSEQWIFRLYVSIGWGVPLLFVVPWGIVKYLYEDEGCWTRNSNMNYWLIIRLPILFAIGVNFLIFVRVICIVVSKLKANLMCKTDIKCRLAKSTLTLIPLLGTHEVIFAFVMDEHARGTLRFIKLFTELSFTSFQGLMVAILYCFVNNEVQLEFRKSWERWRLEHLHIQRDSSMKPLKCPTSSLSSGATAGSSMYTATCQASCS
Chain of GLP-1R (Homo sapiens, UniProt P43220, W39A) (P43220 24-463 W39A): as the sequence (P43220 24-463 Y145A/D198A/K202A) above, with W16A, A122Y, A175D, A179K counted along it

Turning to `CCCCCCCCCCCCCCCC(=O)N[C@@H](CCC(=O)NCCCC[C@H](NC(=O)[C@H](CC(=O)O)NC(=O)[C@H](CO)NC(=O)[C@@H](NC(=O)[C@H](Cc1ccccc1)NC(=O)[C@@H](NC(=O)CNC(=O)[C@H](CCC(N)=O)NC(=O)C(C)(C)NC(=O)[C@@H](N)Cc1c[nH]cn1)[C@@H](C)O)[C@@H](C)O)C(=O)N[C@@H](CO)C(=O)N[C@@H](CCCCN)C(=O)N[C@@H](Cc1ccc(O)cc1)C(=O)N[C@@H](CC(C)C)C(=O)N[C@@H](CC(=O)O)C(=O)N[C@@H](CCC(=O)O)C(=O)N[C@@H](CCCNC(=N)N)C(=O)N[C@@H](C)C(=O)N[C@@H](C)C(=O)N[C@@H](CCC(N)=O)C(=O)N[C@@H](CC(=O)O)C(=O)N[C@@H](Cc1ccccc1)C(=O)N[C@H](C(=O)N[C@@H](CCC(N)=O)C(=O)N[C@@H](Cc1c[nH]c2ccccc12)C(=O)N[C@@H](CC(C)C)C(=O)N[C@@H](CC(C)C)C(=O)N[C@@H](CC(=O)O)C(=O)NCC(=O)NCC(=O)N1CCC[C@H]1C(=O)N[C@@H](CO)C(=O)N[C@@H](CO)C(=O)NCC(=O)N[C@@H](C)C(=O)N1CCC[C@H]1C(=O)N1CCC[C@H]1C(=O)N1CCC[C@H]1C(=O)N[C@@H](CO)C(N)=O)C(C)C)C(=O)O` [Peptide 20], the “binding Span” value on GIPR [1] is 71.60 ± 4.11 % WT; on GIPR [2], 96.83 ± 6.13 % WT. The IC50 at GIPR [1] (setting [5]) is 24 nM; on GIPR [2] (setting [5]), 20 nM. Further, the values for the Emax on GLP-1R [3] and at GLP-1R [4] (HEK-293T) were 100 ± 1.04% and 99.9 ± 1.67%, respectively. At GLP-1R [4] (read-out: cAMP pEC50 (converted)), the EC50 is 0.0389 nM.

For the origin of these results see publication PMC8881610 (Nature Communications, 2022).
